In patent US11279702B2, “AMPK activators” (Kallyope, Inc., priority 2020, dated 2022):

Tests used:
[1] = target: Recombinant AMPK α1/β1/γ1 complex (Homo sapiens (Human), UniProt Q13131+Q9Y478); test: In vitro pAMPK1 kinase activation assay (ADP-Glo, SAMS peptide); assay type: biochemical; details: for EC50: AMPK α1/β1/γ1 pre-activated with CAMKK2, 12-point curve; for activation at 10 µM: relative to reference compound MK-8722
Method: Compound effect on AMPK enzyme activation was determined in a cell-free format with a 12-point concentration curve. The ADP-Glo detection system was used to determine phosphorylation of a SAMS peptide substrate. Recombinant AMPK α1/β1/γ1 complex was pre-activated by phosphorylation with CAMKK2 followed by incubated with compound for 15 minutes prior to the SAMS phosphorylation reaction. Activity curves and EC50 values were fitted by interpolation to an ATP:ADP standard curve as indicated by the ADP-Glo manufacturer using Prism software. Activity at 10 μM is reported relative to a reference compound, MK-8722 (Science 2017, 357(6350):507-511).

[2] = Pharmacokinetics (oral bioavailability, IV parameters); details: mouse, in vivo; C57BL/6 mice, IV 1 mg/kg, PO 30 mg/kg
Method: Compounds were tested for pharmacokinetics in C57BL/6 mice. Compounds 2, 4, and A1 were dosed IV at 1 mg/kg as a formulation of 0.5 mg/mL in 5% DMSO+30% PEG400+65% water and PO at 30 mg/kg as a formulation of 6 mg/mL in 0.25% MC+5% Tween 80+0.02% SDS. Compound 1 was dosed IV at 1 mg/kg as a formulation of 0.50 mg/mL in 5% DMSO+30% PEG400+65% water and PO at 30 mg/kg as a formulation of 6 mg/mL in 0.5% MC+0.5% Tween 80.

[3] = test system: Mouse In Vivo Chemotherapy-Induced Intestinal Injury Model; test: Diarrhea in chemotherapy (5FU)-induced intestinal injury model; set-up: species or system BALB/c mice; details: 30 mg/kg BID
Method: Compounds were formulated in vehicle (0.25% methyl cellulose, 5% Tween 80, 0.02% sodium dodecyl sulfate (SDS) in Hanks' Buffered Salt Solution with Ca2+ and Mg2+). On day 1, either saline or a 400 mg/kg dose of 5-fluorouracil (5FU) in saline was administered by intraperitoneal injection to BALB/c mice. Starting on day 2, vehicle or compound was administered once or twice a day by oral gavage. In some instances, compound was also administered once or twice a day by oral gavage from day −3 to day −1 (pre-5FU). From days 5 to 6 post-5FU, the animals were scored for diarrhea severity once a day. The diarrhea was scored 0-3 as follows: 0—normal consistency (black and solid), 1—soft (black and a bit lighter/yellow), 2—loosely shaped stool (yellowish and somewhat watery), 3—extreme diarrhea (very watery). Day 5 and day 6 diarrhea scores following administration of certain compounds were lower than vehicle control mice. […] In addition, Compound 1 was efficacious at doses as low as 3 mg/kg BID (6 mg/kg total daily dose).

BCRP = BCRP (Homo sapiens (Human), UniProt Q9UNQ0); test: in vitro; assay type: in vitro ADME
BCRP, sequence (Q9UNQ0 whole entry): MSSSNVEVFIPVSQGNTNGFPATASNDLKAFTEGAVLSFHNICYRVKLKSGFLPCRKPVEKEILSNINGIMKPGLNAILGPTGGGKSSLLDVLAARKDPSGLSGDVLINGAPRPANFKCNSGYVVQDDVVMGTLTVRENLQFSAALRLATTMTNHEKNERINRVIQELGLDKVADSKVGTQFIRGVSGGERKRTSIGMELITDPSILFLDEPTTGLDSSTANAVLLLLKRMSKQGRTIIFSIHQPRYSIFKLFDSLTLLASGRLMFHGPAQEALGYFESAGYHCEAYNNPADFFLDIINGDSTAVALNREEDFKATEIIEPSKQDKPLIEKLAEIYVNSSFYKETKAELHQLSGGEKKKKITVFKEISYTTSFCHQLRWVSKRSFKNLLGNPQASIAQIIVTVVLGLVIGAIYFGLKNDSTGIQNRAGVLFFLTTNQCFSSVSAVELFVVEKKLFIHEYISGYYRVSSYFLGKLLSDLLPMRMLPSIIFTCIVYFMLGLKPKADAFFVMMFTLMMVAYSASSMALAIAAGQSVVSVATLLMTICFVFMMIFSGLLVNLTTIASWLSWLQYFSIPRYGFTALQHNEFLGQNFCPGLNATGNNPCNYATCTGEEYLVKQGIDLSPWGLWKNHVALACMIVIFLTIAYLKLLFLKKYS
Method: Caco-2 cells purchased from ATCC were seeded onto […] (PET) in 96-well BD Insert plates at 1×10^5 cells/cm^2, and refreshed medium every 4-5 days until to the 21st to 28th day for confluent cell monolayer formation. The transport buffer in the study was HBSS with 10 mM HEPES at pH 7.40±0.05. Compounds were tested at 2 μM in the presence or absence of 30 μM novobiocin bi-directionally in duplicate. E3S was tested at 5 μM in the presence or absence of 30 μM novobiocin bi-directionally in duplicate, while nadolol and metoprolol were tested at 2 μM in the absence of novobiocin in A to B direction in duplicate. Final DMSO concentration was adjusted to less than 1%. The plate was incubated for 2 hours in CO2 incubator at 37+1° C., with 5% CO2 at saturated humidity without shaking. All samples were mixed with acetonitrile containing internal standard and were centrifuged at 4000 rpm for 10 min. Subsequently, 100 μL supernatant solution was diluted with 100 μL distilled water for LC/MS/MS analysis. Concentrations of test and control compounds in starting solution, donor solution, and receiver solution were quantified by LC/MS/MS, using peak area ratio of analyte/internal standard.

[4] = test system: Acetyl CoA Carboxylase (ACC) Phosphorylation in Mouse Muscle; test: Level of ACC phosphorylation in mouse muscle; assay type: in vivo, C57BL/6J mice
Method: Systemic AMPK target engagement in vivo can be assessed by measuring the site-specific phosphorylation of a direct AMPK substrate, acetyl-coenzyme A carboxylase (ACC), in a well perfused tissue such as muscle.
Compounds were formulated in vehicle (0.25% methyl cellulose, 5% Tween 80, 0.02% sodium dodecyl sulfate (SDS) in Hanks' Buffered Salt Solution with Ca^2+ and Mg^2+). Male C57BL/6J mice were administered vehicle or compound once daily for 5 days. On the final day of dosing (day 1 for acute assessment, day 5 for sub-chronic assessment), mice were euthanized by cervical dislocation five hours post dose and samples of skeletal muscle (gastrocnemius) were removed and snap frozen in liquid nitrogen.
Frozen muscle tissues were homogenized. Homogenates were analyzed for protein concentration and equal amounts of protein were assayed for total and phosphorylated ACC (p-ACC) levels using Meso Scale Discovery's Multi-array assay kit. The ratio of p-ACC/total ACC was determined for each sample.

Recombinant AMPK α1/β1/γ1 complex, sequence (Q13131 whole entry): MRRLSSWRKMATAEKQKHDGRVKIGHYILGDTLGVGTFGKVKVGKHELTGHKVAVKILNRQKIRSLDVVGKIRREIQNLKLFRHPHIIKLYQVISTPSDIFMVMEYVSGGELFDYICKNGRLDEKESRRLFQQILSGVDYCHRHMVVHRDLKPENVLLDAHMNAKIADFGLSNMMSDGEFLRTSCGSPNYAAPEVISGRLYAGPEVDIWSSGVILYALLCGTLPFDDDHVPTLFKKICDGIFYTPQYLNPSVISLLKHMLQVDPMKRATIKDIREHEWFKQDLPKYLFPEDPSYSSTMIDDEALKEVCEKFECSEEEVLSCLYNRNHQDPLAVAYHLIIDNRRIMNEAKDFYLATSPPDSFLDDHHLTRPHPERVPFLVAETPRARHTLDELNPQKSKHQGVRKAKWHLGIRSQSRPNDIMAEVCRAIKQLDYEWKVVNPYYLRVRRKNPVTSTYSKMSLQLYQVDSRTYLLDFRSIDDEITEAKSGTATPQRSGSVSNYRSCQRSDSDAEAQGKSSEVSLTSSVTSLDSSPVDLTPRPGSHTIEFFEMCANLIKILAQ
Recombinant AMPK α1/β1/γ1 complex, sequence (Q9Y478 whole entry): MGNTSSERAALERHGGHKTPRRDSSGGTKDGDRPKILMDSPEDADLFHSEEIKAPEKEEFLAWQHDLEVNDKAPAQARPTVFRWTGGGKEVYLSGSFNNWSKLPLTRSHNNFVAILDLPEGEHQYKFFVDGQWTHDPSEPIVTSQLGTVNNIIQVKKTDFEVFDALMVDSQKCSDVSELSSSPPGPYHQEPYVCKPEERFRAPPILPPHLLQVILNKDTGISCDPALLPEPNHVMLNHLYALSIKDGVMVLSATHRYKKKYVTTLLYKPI
Recombinant AMPK α1/β1/γ1 complex, sequence (P54619 whole entry partner): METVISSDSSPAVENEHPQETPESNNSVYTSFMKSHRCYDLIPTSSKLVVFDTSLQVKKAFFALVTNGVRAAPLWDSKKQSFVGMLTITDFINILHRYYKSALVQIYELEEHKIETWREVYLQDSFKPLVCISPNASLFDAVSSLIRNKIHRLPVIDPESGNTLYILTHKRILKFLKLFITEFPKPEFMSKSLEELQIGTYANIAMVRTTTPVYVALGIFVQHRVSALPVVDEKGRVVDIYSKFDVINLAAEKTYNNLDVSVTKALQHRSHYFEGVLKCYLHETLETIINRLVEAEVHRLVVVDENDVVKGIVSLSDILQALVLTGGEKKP

`O=P(O)(O)CSc1nc2nc(-c3ccc(-c4ccccc4O)cc3)c(Cl)cc2[nH]1` [Compound 4, (((6-chloro-5-(2′-hydroxy-[1,1′-biphenyl]-4-yl)-1H-imidazo[4,5-b]pyridin-2-yl)thio)methyl)phosphonic Acid] showed an EC50 [1] of 0.55 nM, an activation at 10 µM [1] of 28% and a bioavailability [2] of less than 1%. For the same molecule, the “Diarrhea Score % Change vs. Vehicle” value ([3]; Day 5) was −58%, the “Diarrhea Score” value ([3]; Day 5, score 0-3) was 0.37 and the “Diarrhea Score % Change vs. Vehicle” value ([3]; Day 6) was −65%. For the same molecule, the “Diarrhea Score” value ([3]; Day 6, score 0-3) was 0.63.
`CCOP(=O)(O)CSc1nc2nc(-c3ccc(-c4ccccc4O)cc3)c(Cl)cc2[nH]1` [Compound 3, ethyl hydrogen (((6-chloro-5-(2′-hydroxy-[1,1′-biphenyl]-4-yl)-1H-imidazo[4,5-b]pyridin-2-yl)thio)methyl)phosphonate] gave an EC50 [1] of 2.38 nM and an activation at 10 µM [1] of 49%.
`CP(=O)(O)CSc1nc2nc(-c3ccc(-c4ccccc4O)cc3)c(Cl)cc2[nH]1` [Compound 2, (((6-chloro-5-(2′-hydroxy-[1,1′-biphenyl]-4-yl)-1H-imidazo[4,5-b]pyridin-2-yl)thio)methyl)(methyl)phosphinic Acid] gave an EC50 [1] of 0.97 nM, an activation at 10 µM [1] of 47% and a bioavailability [2] of less than 1%.
With `CC(C)(C)CCc1ccc(-c2ccc(-c3nc4nc(SCC(=O)O)[nH]c4cc3Cl)cc2)c(O)c1` [Compound 6, 2-((6-chloro-5-(4′-(3,3-dimethylbutyl)-2′-hydroxy-[1,1′-biphenyl]-4-yl)-1H-imidazo[4,5-b]pyridin-2-yl)thio)acetic Acid] the EC50 [1] was 1120 nM and the activation at 10 µM [1] was 18%.
`COCCc1ccc(OCC(O)CNC(C)C)cc1` (stereo not drawn) [metoprolol, reference compound] gave a Papp A→B at 2 h, 2 μM (BCRP; human, Caco-2, pH 7.4, Mean Papp (10^−6 cm/s) A to B) of 14.7 ×10⁻⁶ cm/s and a recovery at 2 h, 2 μM (BCRP; human, Caco-2, pH 7.4, Mean Recovery (%) A to B) of 95.4%.
With `C[C@]12CC[C@@H]3c4ccc(OS(=O)(=O)O)cc4CC[C@H]3[C@@H]1CCC2=O` [Compound E3S, reference compound] the “Efflux Ratio” value (BCRP; Caco-2) was 36.79, the “Mean Recovery (%) A to B” value (BCRP; Caco-2) was 76.60% and the “Mean Recovery (%) B to A” value (BCRP; Caco-2) was 98.34%.
Molecule `O=C(O)CSc1nc2nc(-c3ccc(N4CC[C@H](O)C4)cc3)c(Cl)cc2[nH]1` [Compound 7, (S)-2-((6-chloro-5-(4-(3-hydroxypyrrolidin-1-yl)phenyl)-1H-imidazo[4,5-b]pyridin-2-yl)thio)acetic Acid] has an EC50 [1] of 43 nM and an activation at 10 µM [1] of 42%.
For `O[C@@H]1CO[C@H]2[C@@H]1OC[C@H]2Oc1nc2cc(Cl)c(-c3ccc(-c4ccccc4)cc3)cc2[nH]1` [MK-8722, reference compound], the “% p-ACC/ACC ratio change vs. Vehicle, Sub-chronic (5 days)” value ([4]; 30 mg/kg once daily for 5 days, five hours post dose, gastrocnemius) was 259.0%, the “% p-ACC/ACC ratio change vs. Vehicle, Acute (5 hr)” value ([4]; 30 mg/kg, day 1, five hours post dose, gastrocnemius) was 275.7% and the “ratio of pACC/total ACC compared with vehicle control mice” value ([4]; 30 mg/kg, one-way ANOVA vs vehicle (Dunnett's post-test)) was “significantly higher”.
With `O=C(O)CSc1nc2nc(-c3ccc(-c4ccc(-n5cncn5)cc4)cc3)c(Cl)cc2[nH]1` [Compound 8, 2-((5-(4′-(1H-1,2,4-triazol-1-yl)-[1,1′-biphenyl]-4-yl)-6-chloro-1H-imidazo[4,5-b]pyridin-2-yl)thio)acetic Acid] the EC50 [1] was 20 nM and the activation at 10 µM [1] was 39%.
For `O=C(O)CSc1nc2nc(-c3ccc(-c4ccc(-n5cncn5)cc4O)cc3)c(Cl)cc2[nH]1` [Compound 9, 2-((6-chloro-5-(2′-hydroxy-4′-(1H-1,2,4-triazol-1-yl)-[1,1′-biphenyl]-4-yl)-1H-imidazo[4,5-b]pyridin-2-yl)thio)acetic Acid], the EC50 [1] was 1.1 nM and the activation at 10 µM [1] was 51%.
With `CC(C)(C)NCC(O)COc1cccc2c1CC(O)C(O)C2` (stereo not drawn) [nadolol, reference compound] the “Mean Papp (10^−6 cm/s) A to B” value (BCRP; Caco-2) was 0.11 10^−6 cm/s and the “Mean Recovery (%) A to B” value (BCRP; Caco-2) was 99.73%.
